Holding throughout (format): cell-based
For one experiment, the target named is T1, PLK1 (Homo sapiens, UniProt P53350).
T1 construct: endogenous in cells; host or cells: HeLa LgBit (Plk1-HiBit KI): HeLa stably expressing LgBit, with HiBit knocked in at the endogenous Plk1 locus by CRISPR/Cas9
Nature of the experiment: Luciferase assay for PLK1 in HeLa LgBit (Plk1-HiBit KI) cell line. Particulars: compound 300 nM, luminescence after 9 hours. As to the method: 2. Luciferase Assay for PLK1
(1) Preparation and Culture of HeLa LgBit (Plk1-HiBit KI) Cell Line
A HeLa cell line in which the LgBit vector was transfected and expressed stably was prepared. Then, after constructing gRNA and donor to express the HiBit amino acid sequence behind the C-terminal of the Plk1 gene, which was inherent in the cell, it was inserted into the cell together with a vector capable of expressing CRISPR/Cas9. Only the cells in which the insertion was completed and knock-in had progressed were selected, sub-cultured and used.
(2) Treatment of Compounds of the Present Invention and Method of Luciferase Assay
In the case of HeLa LgBit (Plk1-HiBit KI), the compounds were treated after being released after thymidine block, and the process was as follows. Thymidine (Sigma-Aldrich Cat. No. T9250-5G) was completely dissolved in DW and used in the experiment. For thymidine block, the products were treated with 2 mM of thymidine and then incubated for 24 hours. For release and chemical treatment, the medium was suctioned and washed with 1×PBS. TrypLE™ was added and incubated in 37° C. CO2 incubator for 5 min. Cells neutralized by adding complete media were counted through a counter. For each well of a 96-well culture plate (SPL), 3.3×10^4 cells and a total medium volume of 150 μL were seeded and incubated in a CO2 incubator.
Each cell line was incubated in a CO2 incubator for 18 hours, and Endurazine was added to each well to make up 4% of the total volume. After adding the compound of the present invention in a 96-well white plate (SPL) to a concentration of 300 nM, the wavelength of the plate reader (BMG Labtech, CLARIOstar Plus) was set to […], and then the luminescence was tracked in real time.
In Table 2, Activity represents the ratio of the luminescence value of each Exemplary Compound treatment group to DMSO treatment group (+++: <0.3, ++<0.6, +<0.7).

The next experiment has as its system MRC-5 cell line. Nature of the experiment: Cell viability assay for MRC-5 cell line (EZ-Cytox cytotoxicity experiment). The settings on record: Homo sapiens, MRC5, 120 h, MRC-5 normal cell line, 5 days; for pIC50: highest concentration 10000 nM, N.D. = no cytotoxicity until 10 μM, read-out: Activity: IC50 value to MRC-5 cell line, N.D. cells; for IC50: 3-fold dilutions 10000 nM to 1.52 nM, Exemplary Compounds, numeric values, read-out: Activity: IC50 value (nM) to MRC-5 cell line. As to the method:
4. Cell Viability Assay for MRC-5 Cell Line
(1) Culture of MRC-5 Cell Line
Passage of cultured cells was maintained within P15.
(2) Treatment of Compounds of the Present Invention
Then, it was cultured in 37° C.
(3) Cytotoxicity Experiment
CO2 incubator for 4 hours.

For another experiment, the system named is H526 cell line. Nature of the experiment: Cell viability assay for NCI-H526 cell line (EZ-Cytox). The settings on record: Homo sapiens, NCI-H526, 120 h; H526 cells, 3-fold dilutions 3000 nM to 0.46 nM, 5 days. As to the method: (1) Culture of NCI-H526 Cell Line
(2) Treatment of Compounds of the Present Invention and Method of Cell Viability Assay
After treating the compound to each well to make the total volume of 200 μL, it was cultured in a CO2 incubator (Thermo Fisher Science, Cat. No. 4111) for 5 days.
The absorbance of the completely cultured sample was measured by setting the wavelength of a plate reader (BMG Labtech, CLARIOstar Plus) to […], and was measured after shaking for 3 minutes in a plate reader before measurement.
In Table 3, Activity represents IC50 value of each Exemplary Compound treatment group to H526 cell line (A: <30 nM, B: <50 nM, C: <100 nM, D: <200 nM, E: <400 nM).

pIC50: −log10 of the molar value. Where two headings read alike, the source gives them in different places. A value given as a limit tells only on which side of the number the result lay.

T1 sequence (P53350 whole entry): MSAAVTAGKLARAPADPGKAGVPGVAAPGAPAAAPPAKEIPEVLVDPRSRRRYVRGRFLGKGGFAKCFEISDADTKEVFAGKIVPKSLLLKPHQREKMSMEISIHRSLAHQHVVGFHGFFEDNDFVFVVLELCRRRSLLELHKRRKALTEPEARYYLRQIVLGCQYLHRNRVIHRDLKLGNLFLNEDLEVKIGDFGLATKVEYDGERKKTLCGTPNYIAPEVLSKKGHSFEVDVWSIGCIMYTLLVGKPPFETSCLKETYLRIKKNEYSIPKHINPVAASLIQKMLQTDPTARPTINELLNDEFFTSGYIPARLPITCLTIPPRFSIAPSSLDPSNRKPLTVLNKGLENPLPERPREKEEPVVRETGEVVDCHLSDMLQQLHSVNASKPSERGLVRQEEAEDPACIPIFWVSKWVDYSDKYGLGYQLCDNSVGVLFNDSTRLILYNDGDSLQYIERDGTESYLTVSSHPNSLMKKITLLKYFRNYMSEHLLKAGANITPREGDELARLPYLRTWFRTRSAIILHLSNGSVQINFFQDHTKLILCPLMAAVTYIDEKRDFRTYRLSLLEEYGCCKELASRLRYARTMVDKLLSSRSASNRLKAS

`COc1cc(C(=O)NC2CCN(C(=O)CCN3CCN(c4cccc(C(=O)NC5CCC(=O)NC5=O)c4F)CC3)CC2)ccc1Nc1ncc2c(n1)N(C1CCCC1)CC(F)(F)C(=O)N2C` (stereo not drawn) [Compound 6, 3-(4-(3-(4-(4-((9-cyclopentyl-7,7-difluoro-5-methyl-6-oxo-6,7,8,9-tetrahydro-5H-pyrimido[4,5-b][1,4]diazepin-2-yl)amino)-3-methoxybenzamido)piperidin-1-yl)-3-oxopropyl)piperazin-1-yl)-N-(2,6-dioxopiperidin-3-yl)-2-fluorobenzamide]: on PLK1, the “Activity: ratio of the luminescence value of each Exemplary Compound treatment group to DMSO treatment group” value (“Activity: ratio” for short) was “++ (++<0.6)”. Also, the pIC50 in the experiment with MRC-5 cell line is less than 5.00; in the experiment with H526 cell line, greater than 7.30.

Regarding `COc1cc(C(=O)NC2CCN(C(=O)CCN3CCN(c4cccc(N(C)C5CCC(=O)NC5=O)c4)CC3)CC2)ccc1Nc1ncc2c(n1)N(C1CCCC1)CC(F)(F)C(=O)N2C` (stereo not drawn) [Compound 15, 4-((9-cyclopentyl-7,7-difluoro-5-methyl-6-oxo-6,7,8,9-tetrahydro-5H-pyrimido[4,5-b][1,4]diazepin-2-yl)amino)-N-(1-(3-(4-(3-((2,6-dioxopiperidin-3-yl)(methyl)amino)phenyl)piperazin-1-yl)propanoyl)piperidin-4-yl)-3-methoxybenzamide], the “Activity: ratio” value at PLK1 is reported as “++ (++<0.6)”. For the same compound, the negative-log IC50 (pIC50) is less than 5.00 in the experiment on MRC-5 cell line and greater than 7.30 with H526 cell line.

In the case of `COc1cc(C(=O)NC2CC3(CCN(CC4CCN(c5ccc(OC6CCC(=O)NC6=O)cc5F)CC4)CC3)C2)ccc1Nc1ncc2c(n1)N(C(C)C)CC(F)(F)C(=O)N2C` (stereo not drawn) [Compound 35, 4-((7,7-difluoro-9-isopropyl-5-methyl-6-oxo-6,7,8,9-tetrahydro-5H-pyrimido[4,5-b][1,4]diazepin-2-yl)amino)-N-(7-((1-(4-((2,6-dioxopiperidin-3-yl)oxy)-2-fluorophenyl)piperidin-4-yl)methyl)-7-azaspiro[3.5]nonan-2-yl)-3-methoxybenzamide], the “Activity: ratio” value on PLK1 was “+++ (+++: <0.3)”. Also, the IC50 in the experiment with MRC-5 cell line was found to be 16900 nM. This compound also showed a negative logarithm of the IC50 (pIC50) in the experiment with H526 cell line greater than 7.30.

Turning to `COc1cc(C(=O)NN2CCC(CN3CCN(c4ccc(NC5CCC(=O)NC5=O)cc4Cl)CC3)CC2)ccc1Nc1ncc2c(n1)N(C(C)C)CC(F)(F)C(=O)N2C` (stereo not drawn) [Compound 19, N-(4-((4-(2-chloro-4-((2,6-dioxopiperidin-3-yl)amino)phenyl)piperazin-1-yl)methyl)piperidin-1-yl)-4-((7,7-difluoro-9-isopropyl-5-methyl-6-oxo-6,7,8,9-tetrahydro-5H-pyrimido[4,5-b][1,4]diazepin-2-yl)amino)-3-methoxybenzamide], the “Activity: ratio” value on PLK1 was “+ (+<0.7)”. Besides, the pIC50 is less than 5.00 in the experiment on MRC-5 cell line and greater than 7.30 in the experiment on H526 cell line.

Take `COc1cc(C(=O)NC2CC3(CCN(CC4CCN(c5ccc(N(C)C6CCC(=O)NC6=O)cc5F)CC4)CC3)C2)ccc1Nc1ncc2c(n1)N(C(C)C)CC(F)(F)C(=O)N2C` (stereo not drawn) [Compound 26, 4-((7,7-difluoro-9-isopropyl-5-methyl-6-oxo-6,7,8,9-tetrahydro-5H-pyrimido[4,5-b][1,4]diazepin-2-yl)amino)-N-(7-((1-(4-((2,6-dioxopiperidin-3-yl)(methyl)amino)-2-fluorophenyl)piperidin-4-yl)methyl)-7-azaspiro[3.5]nonan-2-yl)-3-methoxybenzamide]: the “Activity: ratio” value at PLK1 is recorded as “+++ (+++: <0.3)”. Further, in the experiment on MRC-5 cell line, the IC50 amounted to 6550 nM. For the same compound, in the experiment on H526 cell line, the pIC50 is greater than 7.30.

As for `COc1cc(C(=O)NC2CC3(CCN(CC4CCN(c5ccc(NC6CCC(=O)NC6=O)cc5)CC4)CC3)C2)ccc1Nc1ncc2c(n1)N(C(C)C)CC(F)(F)C(=O)N2C` (stereo not drawn) [Compound 28, 4-((7,7-difluoro-9-isopropyl-5-methyl-6-oxo-6,7,8,9-tetrahydro-5H-pyrimido[4,5-b][1,4]diazepin-2-yl)amino)-N-(7-((1-(4-((2,6-dioxopiperidin-3-yl)amino)phenyl)piperidin-4-yl)methyl)-7-azaspiro[3.5]nonan-2-yl)-3-methoxybenzamide], the “Activity: ratio” value on PLK1 is “++ (++<0.6)”. In addition, the 50% inhibitory concentration (IC50) in the experiment on MRC-5 cell line came to 10200 nM. In the experiment with H526 cell line, this compound showed a pIC50 greater than 7.52.

With `COc1cc(C(=O)NC2CCN(CCC3CCN(c4cccc5c4n(C)c(=O)n5C4CCC(=O)NC4=O)CC3)CC2)ccc1Nc1ncc2c(n1)N(C1CCCC1)CC(F)(F)C(=O)N2C` (stereo not drawn) [Compound 37, 4-((9-cyclopentyl-7,7-difluoro-5-methyl-6-oxo-6,7,8,9-tetrahydro-5H-pyrimido[4,5-b][1,4]diazepin-2-yl)amino)-N-(1-(2-(1-(1-(2,6-dioxopiperidin-3-yl)-3-methyl-2-oxo-2,3-dihydro-1H-benzo[d]imidazol-4-yl)piperidin-4-yl)ethyl)piperidin-4-yl)-3-methoxybenzamide], the “Activity: ratio” value at PLK1 is listed as “++ (++<0.6)”. Further, the pIC50 in the experiment with MRC-5 cell line is less than 5.00; with H526 cell line it was greater than 7.30.

As to `COc1cc(C(=O)NC2CCN(C(=O)CCN3CCN(c4ccc(NC5CCC(=O)NC5=O)cc4)CC3)CC2)ccc1Nc1ncc2c(n1)N(C1CCCC1)CC(F)(F)C(=O)N2C` (stereo not drawn) [Compound 13, 4-((9-cyclopentyl-7,7-difluoro-5-methyl-6-oxo-6,7,8,9-tetrahydro-5H-pyrimido[4,5-b][1,4]diazepin-2-yl)amino)-N-(1-(3-(4-(4-((2,6-dioxopiperidin-3-yl)amino)phenyl)piperazin-1-yl)propanoyl)piperidin-4-yl)-3-methoxybenzamide], at PLK1, the “Activity: ratio” value is “+++ (+++: <0.3)”. Further, the results for the negative logarithm of the IC50 (pIC50) in the experiment on MRC-5 cell line and in the experiment on H526 cell line were less than 5.00 and greater than 7.52, respectively.

For the compound `COc1cc(C(=O)NN2CCC(N3CC4(CCN(c5ccc(NC6CCC(=O)NC6=O)cc5F)CC4)C3)CC2)ccc1Nc1ncc2c(n1)N(C(C)C)CC(F)(F)C(=O)N2C` (stereo not drawn) [Compound 32, 4-((7,7-difluoro-9-isopropyl-5-methyl-6-oxo-6,7,8,9-tetrahydro-5H-pyrimido[4,5-b][1,4]diazepin-2-yl)amino)-N-(4-(7-(4-((2,6-dioxopiperidin-3-yl)amino)-2-fluorophenyl)-2,7-diazaspiro[3.5]nonan-2-yl)piperidin-1-yl)-3-methoxybenzamide], the “Activity: ratio” value at PLK1 is “++ (++<0.6)”. The values for the pIC50 with MRC-5 cell line and in the experiment on H526 cell line were less than 5.00 and greater than 7.30, respectively.

Regarding `COc1cc(C(=O)NC2CCN(C(=O)CCCNc3ccc(C(=O)NC4CCC(=O)NC4=O)cc3)CC2)c(F)cc1Nc1ncc2c(n1)N(C1CCCC1)CC(F)(F)C(=O)N2C` (stereo not drawn) [Compound 1, 4-((9-cyclopentyl-7,7-difluoro-5-methyl-6-oxo-6,7,8,9-tetrahydro-5H-pyrimido[4,5-b][1,4]diazepin-2-yl)amino)-N-(1-(4-((4-((2,6-dioxopiperidin-3-yl)carbamoyl)phenyl)amino)butanoyl)piperidin-4-yl)-2-fluoro-5-methoxybenzamide], on PLK1, the “Activity: ratio” value is on record as “++ (++<0.6)”. The pIC50 in the experiment on MRC-5 cell line is less than 5.00; in the experiment with H526 cell line, greater than 7.30.

By pIC50 is commonly meant the negative decadic logarithm of the IC50, by convention in mol/L. One may read the IC50 as the concentration that inhibits the measured activity by half.

The record behind these values is patent US20250101025A1, “NOVEL PLK1 DEGRADATION INDUCING COMPOUND” (UPPTHERA, INC., priority 2021, published 2025).
